Laboratory results from PubChem BioAssay AID230 (DTP/NCI, 2004).
Several values for one entry are separate records, joined by “and”; a condition that tells them apart may be missing. Identical values can stand only once. Inconclusive results and toxic doses are left out. How the source made its calls: active means survival T/C of 150% or more; inactive means T/C below 125% in these data.

Tested on: C3H/He mice, Gardner lymphosarcoma 6C3HED ip, survival T/C
Assay: NCI In Vivo Anticancer Drug Screen. Data for tumor model Lymphosarcoma Gardner 6C3HED (intraperitoneal) in C3H/He mice
Conditions: higher = longer survival
Experimental: The antitumor activity of compounds was measured in mice bearing transplantable tumors. Survival or tumor size were measured and the results are expressed as the measurement made in the treated group (T) divided by the measurement made in the vehicle treated control group (C). The tumor model used in this assay is Lymphosarcoma Gardner 6C3HED (intraperitoneal) in C3H/He mice

[1] = endpoint: survival time, mean or median, dose: 2.5 mg/kg/injection, schedule: Q01DX010 (ip), vehicle: saline
[2] = endpoint: survival time, mean or median, dose: 5.0 mg/kg/injection, schedule: Q01DX010 (ip), vehicle: saline
[3] = endpoint: survival time, mean or median, dose: 10.0 mg/kg/injection, schedule: Q01DX010 (ip), vehicle: saline
[4] = endpoint: survival time, mean or median, dose: 20.0 mg/kg/injection, schedule: Q01DX010 (ip), vehicle: saline
[5] = endpoint: survival time, mean or median, dose: 40.0 mg/kg/injection, schedule: Q01DX010 (ip), vehicle: saline
[6] = endpoint: survival time, mean or median, dose: 0.13 mg/kg/injection, schedule: Q01DX010 (ip), vehicle: saline
[7] = endpoint: survival time, mean or median, dose: 0.25 mg/kg/injection, schedule: Q01DX010 (ip), vehicle: saline
[8] = endpoint: survival time, mean or median, dose: 0.5 mg/kg/injection, schedule: Q01DX010 (ip), vehicle: saline
[9] = endpoint: survival time, mean or median, dose: 125.0 micrograms/kg/injection, schedule: Q01DX010 (ip), vehicle: saline
[10] = endpoint: survival time, mean or median, dose: 250.0 micrograms/kg/injection, schedule: Q01DX010 (ip), vehicle: saline
[11] = endpoint: survival time, mean or median, dose: 12.5 mg/kg/injection, schedule: Q01DX010 (ip), vehicle: saline
[12] = endpoint: survival time, mean or median, dose: 25.0 mg/kg/injection, schedule: Q01DX010 (ip), vehicle: saline
[13] = endpoint: survival time, mean or median, dose: 50.0 mg/kg/injection, schedule: Q01DX010 (ip), vehicle: saline
[14] = endpoint: survival time, mean or median, dose: 100.0 mg/kg/injection, schedule: Q01DX010 (ip), vehicle: saline
[15] = endpoint: survival time, mean or median, dose: 200.0 mg/kg/injection, schedule: Q01DX010 (ip), vehicle: saline
[16] = endpoint: survival time, mean or median, dose: 7.8 mg/kg/injection, schedule: Q01DX010 (ip), vehicle: saline
[17] = endpoint: survival time, mean or median, dose: 2.0 mg/kg/injection, schedule: Q01DX010 (ip), vehicle: saline
[18] = endpoint: survival time, mean or median, dose: 4.0 mg/kg/injection, schedule: Q01DX010 (ip), vehicle: saline

Measured: T/C

Nc1nc(N)c2nc(CNc3ccc(C(=O)NC(CCC(=O)O)C(=O)O)cc3)cnc2n1 (stereo unspecified)
inactive: endpoint: survival time, mean or median, dose: 0.03 mg/kg/injection, schedule: Q01DX010 (ip), vehicle: other 95 % of control and 100 % of control | endpoint: survival time, mean or median, dose: 0.05 mg/kg/injection, schedule: Q01DX010 (ip), vehicle: other 100 % of control and 110 % of control | endpoint: survival time, mean or median, dose: 0.1 mg/kg/injection, schedule: Q01DX010 (ip), vehicle: other 100 % of control and 110 % of control

N=C(N)SCc1c2ccccc2c(CSC(=N)N)c2ccccc12
active: [1] 300 % of control | [2] 300 % of control | [3] 300 % of control | [4] 300 % of control | [5] 192 % of control

CC(=O)NC1=C(N2CC2)C(=O)C(NC(C)=O)=C(N2CC2)C1=O
inactive: [6] 117 % of control | [7] 92 % of control | [8] 103 % of control | [10] 114 % of control
active: endpoint: survival time, mean or median, dose: 63.0 micrograms/kg/injection, schedule: Q01DX010 (ip), vehicle: saline 170 % of control | [9] 204 % of control

C[C@@H]1C[C@H]2CC[C@H](O2)[C@H](C)C(=O)O[C@@H](C)C[C@@H]2CC[C@@H](O2)[C@@H](C)C(=O)O[C@H](C)C[C@H]2CC[C@H](O2)[C@H](C)C(=O)O[C@@H](C)C[C@@H]2CC[C@@H](O2)[C@@H](C)C(=O)O1
inactive: [11] 100 % of control | [12] 92 % of control | [13] 96 % of control

COc1cc2c(c(OC)c1OC)-c1ccc(OC)c(=O)cc1[C@@H](NC(C)=O)CC2
inactive: endpoint: survival time, mean or median, dose: 0.01 mg/kg/injection, schedule: Q01DX010 (ip), vehicle: saline 100 % of control | endpoint: survival time, mean or median, dose: 0.02 mg/kg/injection, schedule: Q01DX010 (ip), vehicle: saline 103 % of control | endpoint: survival time, mean or median, dose: 0.04 mg/kg/injection, schedule: Q01DX010 (ip), vehicle: saline 100 % of control | endpoint: survival time, mean or median, dose: 0.08 mg/kg/injection, schedule: Q01DX010 (ip), vehicle: saline 121 % of control

NCC(=O)O
inactive: endpoint: median survival time, dose: 187.5 mg/kg/injection, schedule: Q04HX020 (ip), vehicle: saline 88 % of control | endpoint: median survival time, dose: 187.5 mg/kg/injection, schedule: Q06HX020 (ip), vehicle: saline 89 % of control | endpoint: median survival time, dose: 375.0 mg/kg/injection, schedule: Q04HX020 (ip), vehicle: saline 88 % of control | endpoint: median survival time, dose: 375.0 mg/kg/injection, schedule: Q06HX020 (ip), vehicle: saline 89 % of control | endpoint: median survival time, dose: 750.0 mg/kg/injection, schedule: Q04HX020 (ip), vehicle: saline 92 % of control | endpoint: median survival time, dose: 750.0 mg/kg/injection, schedule: Q06HX020 (ip), vehicle: saline 93 % of control | endpoint: median survival time, dose: 1500.0 mg/kg/injection, schedule: Q06HX020 (ip), vehicle: saline 69 % of control

OCCOCCN1CCN(CCCN2c3ccccc3Sc3ccc(C(F)(F)F)cc32)CC1
inactive: [2] 90 % of control | [4] 90 % of control

NC(=O)n1cccn1
inactive: [12] 89 % of control | [13] 96 % of control | [14] 96 % of control | [15] 100 % of control

NC(=O)CC(N)C(=O)O (stereo unspecified)
inactive: endpoint: median survival time, dose: 100.0 mg/kg/injection, schedule: Q01DX005 (ip), vehicle: water 92 % of control | endpoint: median survival time, dose: 200.0 mg/kg/injection, schedule: Q01DX005 (ip), vehicle: water 100 % of control | endpoint: median survival time, dose: 400.0 mg/kg/injection, schedule: Q01DX005 (ip), vehicle: water 92 % of control | endpoint: median survival time, dose: 800.0 mg/kg/injection, schedule: Q01DX005 (ip), vehicle: water 92 % of control

CSc1ncnc2nc[nH]c12
inactive: [12] 100 % of control | [13] 93 % of control and 100 % of control | [14] 93 % of control and 100 % of control | [15] 93 % of control and 103 % of control

O=[n+]1c2c(n([O-])c3ccccc31)-c1cccc3cccc-2c13
inactive: endpoint: survival time, mean or median, dose: 3.13 mg/kg/injection, schedule: Q01DX010 (ip), vehicle: saline 86 % of control

CS(=O)(=O)OCCC(=O)N1CCN(C(=O)CCOS(C)(=O)=O)CC1
active: [13] 207 % of control and 267 % of control

CCCSc1ncnc2nc[nH]c12
inactive: endpoint: survival time, mean or median, dose: 125.0 mg/kg/injection, schedule: Q01DX010 (ip), vehicle: saline 95 % of control | endpoint: survival time, mean or median, dose: 250.0 mg/kg/injection, schedule: Q01DX010 (ip), vehicle: saline 95 % of control

CS(=O)(=O)OCCN(CCOS(C)(=O)=O)c1ccc(N=O)cc1
inactive: endpoint: survival time, mean or median, dose: 62.5 micrograms/kg/injection, schedule: Q01DX010 (ip), vehicle: saline 107 % of control | [9] 111 % of control | [10] 111 % of control | endpoint: survival time, mean or median, dose: 500.0 micrograms/kg/injection, schedule: Q01DX010 (ip), vehicle: saline 92 % of control

Nc1c(Br)cc2c(c1Br)Cc1cc([N+](=O)[O-])ccc1-2
inactive: [16] 92 % of control

COc1cc(-c2ccc(Nc3ccccc3C(=O)O)c(OC)c2)ccc1Nc1ccccc1C(=O)O
inactive: [11] 117 % of control | [12] 107 % of control and 117 % of control | [13] 117 % of control and 118 % of control | [14] 96 % of control

O=c1[nH]cnc2c1ncn2C1OC(CO)C(O)C1O (stereo unspecified)
inactive: endpoint: median survival time, dose: 12.5 mg/kg/injection, schedule: Q01DX003 (ip), vehicle: saline 90 % of control | endpoint: median survival time, dose: 12.5 mg/kg/injection, schedule: Q12HX006 (ip), vehicle: saline 101 % of control | endpoint: median survival time, dose: 25.0 mg/kg/injection, schedule: Q01DX003 (ip), vehicle: saline 95 % of control | endpoint: median survival time, dose: 25.0 mg/kg/injection, schedule: Q12HX006 (ip), vehicle: saline 104 % of control | endpoint: median survival time, dose: 50.0 mg/kg/injection, schedule: Q01DX003 (ip), vehicle: saline 100 % of control | endpoint: median survival time, dose: 50.0 mg/kg/injection, schedule: Q12HX006 (ip), vehicle: saline 106 % of control

COc1cc(-c2ccc(Nc3ccccc3C(=O)O)c(OC)c2)ccc1N
inactive: [2] 110 % of control | [3] 96 % of control and 107 % of control | [4] 92 % of control | [5] 89 % of control and 96 % of control | endpoint: survival time, mean or median, dose: 80.0 mg/kg/injection, schedule: Q01DX010 (ip), vehicle: saline 89 % of control

CO[C@H](C(=O)[C@@H](O)[C@@H](C)O)[C@@H]1Cc2cc3cc(OC4CC(OC5CC(O)C(O)C(C)O5)C(O)C(C)O4)c(C)c(O)c3c(O)c2C(=O)[C@H]1OC1CC(OC2CC(OC3CC(C)(O)C(O)C(C)O3)C(O)C(C)O2)C(O)C(C)O1 (stereo partly specified)
inactive: [6] 111 % of control | [7] 123 % of control
active: endpoint: survival time, mean or median, dose: 1.0 mg/kg/injection, schedule: Q01DX010 (ip), vehicle: saline 300 % of control | [17] 188 % of control

OC(CBr)C(O)C(O)C(O)CBr (stereo unspecified)
inactive: [12] 88 % of control and 96 % of control | [13] 88 % of control and 110 % of control | [14] 100 % of control and 110 % of control | [15] 88 % of control and 110 % of control

CC(CCC(C)OS(C)(=O)=O)OS(C)(=O)=O (stereo unspecified)
inactive: [18] 86 % of control | endpoint: survival time, mean or median, dose: 8.0 mg/kg/injection, schedule: Q01DX010 (ip), vehicle: saline 100 % of control

N[C@@H](Cc1ccc(N(CCCl)CCCl)cc1)C(=O)O
inactive: [8] 106 % of control | [18] 93 % of control
active: [17] 150 % of control

CC[n+]1c(-c2ccccc2)c2cc(N)ccc2c2ccc(N)cc21
inactive: endpoint: survival time, mean or median, dose: 1.25 mg/kg/injection, schedule: Q01DX010 (ip), vehicle: saline 117 % of control | [1] 121 % of control | [2] 117 % of control | [3] 121 % of control

CCN(CCNc1ccc(C)c2sc3cc(Cl)ccc3c(=O)c12)CC(C)O (stereo unspecified)
inactive: [16] 110 % of control | endpoint: survival time, mean or median, dose: 15.6 mg/kg/injection, schedule: Q01DX010 (ip), vehicle: saline 100 % of control | endpoint: survival time, mean or median, dose: 31.3 mg/kg/injection, schedule: Q01DX010 (ip), vehicle: saline 100 % of control | endpoint: survival time, mean or median, dose: 62.5 mg/kg/injection, schedule: Q01DX010 (ip), vehicle: saline 88 % of control and 96 % of control

O=c1[nH]c(=O)n(C2CC(O)C(CO)O2)cc1F (stereo unspecified)
inactive: [3] 100 % of control and 115 % of control
107 % of control and 229 % of control: [4]
115 % of control and 303 % of control: [2]
115 % of control and 212 % of control: [5]

CC(N)(CC(=O)O)C(=O)O (stereo unspecified)
inactive: endpoint: median survival time, dose: 3.12 mg/kg/injection, schedule: Q01DX009 (ip), vehicle: saline 90 % of control and 98 % of control | endpoint: median survival time, dose: 6.25 mg/kg/injection, schedule: Q01DX009 (ip), vehicle: saline 96 % of control | endpoint: median survival time, dose: 12.5 mg/kg/injection, schedule: Q01DX009 (ip), vehicle: saline 92 % of control and 99 % of control | endpoint: median survival time, dose: 25.0 mg/kg/injection, schedule: Q01DX009 (ip), vehicle: saline 86 % of control | endpoint: median survival time, dose: 50.0 mg/kg/injection, schedule: Q01DX009 (ip), vehicle: saline 101 % of control
